# Results as given in patent publication US6907280B2, “Method and apparatus for objectively measuring pain, pain treatment and other related techniques” (The General Hospital Corporation, priority 1999, dated 2005).
# How the values were obtained:
# [1] = test system: reward/aversion circuitry (GOb, NAc, SLEA, amygdala, VT); experiment: Unblinded low-dose morphine vs saline infusion fMRI in drug-naive healthy volunteers; assay type: in vivo, human
# Description: Error bars are included for the MRI data acquired as the 20′ time-point, the 70′ time-point, the 150′ time-point, and the 250′ time-point. Time is represented in seconds using a conversion of repetition time (TR)=6 RR intervals=6 seconds. […] (Table II)
# NAc brain region = details: 4 mg/70 kg, noxious heat 46° C.
# Description: The saline is administered using conventional intravenous techniques. The thermal stimulus is delivered to a subject using a Peltier based thermode. The size of the activations shown in FIG. 10A indicate the relative extent within each region. The size of the region corresponds to the amount of activation in a volume in the NAc. Thus, a relatively small size corresponds to a relatively low activation volume in the NAc while a relatively large size corresponds to a relatively large activation volume in the NAc.
# The thermal pulse 794 is provided having a pulse duration typically of about thirty seconds followed by a resting period 792b having a duration typically of about thirty seconds and during which time a neutral temperature is applied to the subject. […] In one experiment, the first temperature (i.e. the neutral temperature) corresponds to a temperature typically of about 35° C. and the second temperature (i.e. the painful temperature) corresponds to a temperature typically of about 46° C. Thus, pulses 792 and 794 in FIG. 10B vary from a temperature typically of about 35° C. to a temperature typically of about 46° C. […]
# [2] = test system: brainstem region spV and thalamus; experiment: Heat/capsaicin sensitization model on the face: fMRI of spV and thalamus; assay type: in vivo, human
# Description: Referring now to FIG. 13, surrogate models of sensitization are explained. Activation in the spV and thalamus following allodynia produced by a heat-capsaicin model in a healthy volunteer are, together, different than in acute pain.
# (§1) In one experiment, the following paradigm was used. First allodynia was induced by application of heat in the form of a heat probe as described above to portions of the face of a subject. The heat was applied at a temperature of 44° C. for time period of 5 minutes. Next, a 0.075% capsaicin cream was applied for 20 minutes in the same facial area where the heat probe had been. The capsaicin cream was modified following the method described in “A new human experimental pain model: the heat/capsaicin sensitization model,” Petersen and Rowbotham, Neuroreport. 1999; 10(7):1511-6. Allodynia was produced by the application of normally non-noxious brush and 41 ° C. stimuli to the right (R) and left (L) V2 division of the trigeminal node.
# Curve 1306 represents a zero baseline signal. Curve 1300 is plotted as percent signal change vs. time (seconds).
# Referring now to FIG. 13A, a curve 1310 representing the response of the thalamus to a series of brush strokes of an example of pain 2 is shown. Curve 1312 represents a zero baseline signal. The brush strokes are applied during time periods designated 1314a, 1314b.
# [3] = test system: aCG and NAc brain regions; experiment: fMRI of 41° C. stimulus in subject sensitized to heat by capsaicin (hyperalgesia, Pain 2); assay type: in vivo, human
# Description: Referring now to FIG. 8A, an image of an anterior cingulate gyrus (aCG) having an activation 750 in response to a 41° C. thermal stimulus is shown. […] It should be appreciated of course that any thermal mechanical, chemical device can be used to produce pain. […] Referring now to FIG. 8C, an image of aNAc region 760 in response to a 41° C. thermal stimulus is shown. […] The size and color of the activations shown in FIG. 8C indicate the relative activation and statistical significance respectively within each region.
# [4] = Heat/capsaicin sensitization model on the face: VAS pain ratings; assay type: in vivo, human; details: 11 point VAS 0-10
# Description: as §1
# For the 5 minute thermal application, the capsaicin application and the pain induced by normally non-noxious mechanical and thermal stimuli to the right or left V2 region, the subjects rated the intensity of the pain they experienced using a conventional on-line VAS rating scheme (i.e. an 11 point visual analogue scale 0-10; where 0=no pain and 10=maximum pain). The subjects rated the 5 minute thermal application and the capsaicin application on the V2R as approximately 5 and 2.5, respectively, on the VAS rating scale. The application of the brush to the V2R region was rated as a 2.5 on the VAS scale and the brush to the V2L region (i.e. the untreated V2 region) produced no pain. Also, application of the 41° C. probe to the V2R region was rated as approximately 9 on the VAS scale while application of the 41° C. probe to the V2L region was rated as approximately 1 on the VAS scale.
# VT/PAG brain region = experiment: fMRI of VT/PAG during intravenous naloxone infusion; assay type: in vivo, human; details: naloxone 4 mg/70 kg i.v., infusion period vs preinfusion
# Description: Referring to FIGS. 10E and 10F, central nervous system (CNS) activity in reward/aversive regions is shown in response to an infusion of naloxone (in a dose of 4 mg/70 kg) in a subject.
# Referring now to FIG. 10E, the VT/PAG (combined left and right components in region 820) having an activation 820 in response to an infusion of naloxone in a subject. The size and shade of the region 420a indicates the extent of activation and statistical significance respectively within the region. […] In region 820, a darker shade of gray indicates a less significant activation while a region indicated by a lighter shade of gray indicates a more significant activation.
# The period 822a has a duration typically of about five minutes followed by the infusion period 822b having a duration typically of about five minutes.
# The response is represented by curve 828 showing preinfusion (white background) and post-infusion (stippled background) time points.
# As is known, the VT/PAG is part of the reward/aversion circuitry in the brain and since infusion of naloxone elicits a corresponding decrease (as measured by percentage signal change) in the VT/PAG response, the VT/PAG is said to be negatively valenced with respect to a drug that affects pain function, and analgesic responses to pain.
# [5] = test system: reward/aversion circuitry (GOb, NAc, SLEA, amygdala, VT); experiment: Double-blind cocaine vs saline infusion fMRI in cocaine addicts (Table II Cocaine (1)); details: Outcomes, right hemisphere
# [6] = test system: reward/aversion circuitry (GOb, NAc); experiment: Cocaine expectancy fMRI (prior to/shortly after infusion, before pharmacological effects); assay type: in vivo, human; details: right hemisphere
# Description: Also, drug expectancy effects can be observed prior to the infusion of cocaine vs. saline. […] These effects result from probability assessments regarding the potential of receiving a drug reward (i.e. a previously experienced reward).
# [7] = Outcomes, Morphine, right hemisphere
smiles,measurement,setting,value
CN1CC[C@]23c4c5ccc(O)c4O[C@H]2[C@@H](O)C=C[C@H]3[C@H]1C5 [morphine],"Activation, Gob R",[1]; [7],(X)
same,"Activation, NAc R",[1]; [7],X^3
same,"Activation, SLEA R",[1]; [7],X^2
same,Laterality of NAc signal changes,"[1]; averaged time-course, right and left NAc, morphine vs saline",bilateral NAc changes
same,Valence of NAc signal,[1]; drug reward,positively valenced signal
same,Activation of reward regions such as the NAc,"[1]; low dose morphine, healthy volunteers",activation
same,Subjective effect,[1]; very low doses of morphine,mild euphoria
same,Analgesic effect determined from NAc activation,NAc brain region,attenuates pain
COc1cc(CNC(=O)CCCC/C=C/C(C)C)ccc1O [capsaicin],Ipsilateral spV activation,[2]; 41° C. thermal probe to V2 skin treated with capsaicin,activation in the ipsilateral spV was observed
same,Contralateral thalamus signal change,"[2]; brush induced allodynia, heat-capsaicin model, p<0.01 t-test",decrease in signal
same,NAc signal change to thermal pulse,[3],negative percentage change
same,aCG signal change to thermal pulse,[3],positive percentage change
same,Pain intensity rating of the capsaicin application,[4]; 0.075% capsaicin cream 20 minutes on V2R,~2.5
same,Pain intensity rating of 41° C. probe on treated region,[4]; 41° C. probe to V2R after heat/capsaicin,approximately 9
same,Pain intensity rating of brush on treated region,[4]; brush to V2R after heat/capsaicin,2.5
C=CCN1CC[C@]23c4c5ccc(O)c4O[C@H]2C(=O)CC[C@@]3(O)[C@H]1C5 [naloxone],VT/PAG signal change during infusion,VT/PAG brain region,negative percent change
COC(=O)[C@H]1[C@@H](OC(=O)c2ccccc2)C[C@@H]2CC[C@H]1N2C [cocaine],"Activation, Amygdala R",[5],(X)
same,"Activation, SLEA R",[5],(X)
same,"Activation, Gob R",[6],X^2
